Laboratory results published in paper PMC6149664, “Synthesis and In Vitro Antimycobacterial Activity of Novel N-Arylpiperazines Containing an Ethane-1,2-diyl Connecting Chain” (Molecules : A Journal of Synthetic Chemistry and Natural …, 2017).
Read-outs that look alike come from different tables or passages of the source.

What was measured:
[1] = system: M. tuberculosis CNCTC My 331/88 (identical with H37Rv and ATCC 2794); assay: In vitro antimycobacterial MIC, dilution-micromethod in Šula semisynthetic medium; type: cell-based; conditions: Mycobacterium tuberculosis
[2] = UV/Vis spectra of methanolic solutions (log ε); type: physicochemical; conditions: methanolic solution c = 3.0 × 10^−5 M; for log ε2(Ch-T): charge-transfer maximum λ2(Ch-T) = 238–240 nm; for log ε1: λ1 = 208–210 nm; for log ε3: λ3 = 274–276 nm
Excerpt: Electronic properties of the inspected compounds 8a–h (Table 3) were characterized by logarithms of molar absorption coefficients (log ε) of their methanolic solutions (c = 3.0 × 10^−5 M) investigated in the UV/Vis region of the spectrum.
The UV/Vis spectra of methanolic solutions of the analyzed compounds 8a–h (c = 3.0 × 10^−5 M) were estimated on the 8452A Diode Array spectrophotometer HP-8452A (Hewlett Packard, Palo Alto, CA, USA). Methanol for UV-spectroscopy (Merck) was used for the preparation of these solutions.
Results of the UV/Vis analyses were collected and stored digitally using the ChemStation controller software (Agilent Technologies, Waldbronn, Germany). The HP-8452A apparatus measured a complete range of a spectrum from 190 nm to 820 nm.
The log ε values characterizing methanolic solutions of the analyzed compounds 8a–h (c = 3.0 × 10^−5 M) were estimated at λ1 = 208–210 nm, λ2(Ch-T) = 238–240 nm and λ3 = 274–276 nm (Table 3), respectively, in a near ultraviolet (quarz) region of the electromagnetic spectrum between 200 and 400 nm. The log ε values for the observed absorption maxima were calculated according to the Lambert-Beer´s law discussed in [47], for example, and expressed by Equation (8):A = ε × c × l(8) where the A parameter represented the absorbance of a solution, the descriptor ε was a molar absorption coefficient (in the L/mol/cm units) and l was the path length (in the cm units).

[3] = system: M. avium CNCTC My 330/80 (identical with ATCC 25291); assay: In vitro antimycobacterial MIC, dilution-micromethod in Šula semisynthetic medium; type: cell-based; conditions: Mycobacterium avium
[4] = system: M. avium subsp. paratuberculosis CIT03; assay: microbe, parasite or virus in culture; type: cell-based; conditions: Mycobacterium avium, 168 h; 7 days incubation, alamarBlue; MIC = IC90; read-out: MIC, MAP CIT03
[5] = Isocratic RP-HPLC lipophilicity (k, log k, extrapolated log kw, slope S), MeOH/water mobile phases; type: physicochemical; conditions: for log kw (RP-HPLC): extrapolated to 100% water from log k vs ϕM (MeOH); for S, slope (RP-HPLC): slope of regression log k vs ϕM, alternative measure of lipophilicity
Excerpt: Octadecyl-functionalized silica gel was used as a stationary phase in the RP-HPLC evaluation of 8a–h. A gradient of two solvents at different volume ratios modulated retention properties of a stationary phase. Liquid binary mixtures of methanol (MeOH) with water were employed as mobile phases in a present isocratic RP-HPLC method. The MeOH organic modifier was preferred because of making a reversed-phase chromatographic system closer to the octan-1-ol/water partitioning one in terms of sensitivity to H-bond donor properties of investigated compounds [39, 40]. The modifier was applied in different volume concentrations that varied from 60% to 85% (v/v).
The chromatographic HPLC-Diode Array Detection apparatus for the determination of capacity (retention) factor k (log k) values was the LC Agilent Infinity System (Agilent Technologies, Santa Clara, CA, USA) equipped with a Infinity 1260 gradient pump with a degasser, a 1260 HiPals automatic injector, a column thermostat 1290, a photo-diode array detector Infinity 1290 (all the equipments were obtained by Agilent Technologies) and personal computer with the Agilent ChemStation software (Agilent Technologies) for the registration of values and calibration procedures. The chromatographic column Eclipse plus RP C18, 150 × 4.6 mm i.d., a 5 μm particle size (Agilent Technologies), was used and thermostated at 35 °C.
The analyses were performed at pressure ranged from 7 MPa to 15 MPa. The detection wavelength was set to 260 nm, injection sample volume was 5 μL with a flow rate of 1.0 mL/min in all RP-HPLC analyses.
LC-MS Methanol (J. T. Baker Chemicals Co., Phillipsburg, NJ, USA) and HPLC-quality water (Sigma-Aldrich, Darmstadt, Germany) were used for a preparation of mobile phases. Water was firstly deionized and purified by the Millipore Simplicity 185 Ultrapure water purification system (Millipore, Billerica, MA, USA).
Methanol (MeOH)/water mobile phases with a various volume ratio of the organic modifier and water (60:40, 70:30, 80:20 and 85:15, respectively; v/v) were chosen. A concentration of all analyzed compounds 8a–h was c = 0.25 mg/mL. An queous solution of potassium nitrate (c = 0.1 M) was used for the determination of dead time t0 = 1.295 min. The capacity (retention) factor k values (Table 1) were calculated by Equation (6) as follows:k = (tr – t0)/t0(6) where the tr and t0 parameters were the retention times of a solute (tr) and unretained compound (potassium nitrate; t0), respectively. The observed retention (tr) and dead (t0) times were means of three independent determinations.
The log kw values, i.e., the logarithms of extrapolated capacity (retention) factors for 100% water in the isocratic RP-HPLC, were determined from intercepts of linear plots between the log k and ϕM (a volume fraction of an organic modifier in the isocratic elution RP-HPLC) according to Equation (7): log k = log kw – S × ϕM(7) where the S parameter represented the slope of a regression curve, which was related to the solvent strength of a pure organic solvent.

[6] = system: M. kansasii CIT11/06; assay: In vitro antimycobacterial MIC (IC90), alamarBlue 96-well assay in Middlebrook broth; type: cell-based, Mycobacterium kansasii; conditions: Mycobacterium kansasii, CIT11/06, 168 h, 7 days incubation, read-out: MIC, MK CIT11/06
[7] = 336 h, 14 d cultivation, read-out: MIC, MT My 331/88
[8] = 504 h, 21 d cultivation, read-out: MIC, MT My 331/88
[9] = ATCC25291, 336 h, 14 d cultivation, read-out: MIC, MA My 330/88
[10] = ATCC25291, 504 h, 21 d cultivation, read-out: MIC, MA My 330/88
[11] = mobile phase MeOH/water 60:40 (v/v)
[12] = mobile phase MeOH/water 70:30 (v/v)
[13] = mobile phase MeOH/water 80:20 (v/v)
[14] = mobile phase MeOH/water 85:15 (v/v)
[15] = 336 h, 14-d/21-d cultivation, read-out: MIC against M. tuberculosis CNCTC My 331/88

| SMILES | MIC [1, 7] | MIC [1, 8] | log ε2(Ch-T) [2] | log ε1 [2] | log ε3 [2] | MIC [3, 9] | MIC [3, 10] | MIC [4] | capacity factor k (RP-HPLC) ([5]; MeOH/water 60:40 (v/v)) | capacity factor k (RP-HPLC) ([5]; MeOH/water 70:30 (v/v)) | capacity factor k (RP-HPLC) ([5]; MeOH/water 80:20 (v/v)) | capacity factor k (RP-HPLC) ([5]; MeOH/water 85:15 (v/v)) | log kw (RP-HPLC) [5] | log k (RP-HPLC) [5, 11] | log k (RP-HPLC) [5, 12] | log k (RP-HPLC) [5, 13] | log k (RP-HPLC) [5, 14] | S, slope (RP-HPLC) [5] | MIC [6] | MIC [1, 15] | other results |
| --- | --- | --- | --- | --- | --- | --- | --- | --- | --- | --- | --- | --- | --- | --- | --- | --- | --- | --- | --- | --- | --- |
| CCOC(=O)Nc1ccc(C(O)CN2CCN(c3ccccc3F)CC2)cc1.Cl (centres unmarked) [8f, 1-(2-{4-[(Ethoxycarbonyl)amino]phenyl}-2-hydroxyethyl)-4-(2-fluorophenyl)piperazin-1-ium chloride] | 32 µM | 62.5 µM | 4.60 | 4.59 | 3.60 | > 250 µM | > 250 µM | > 590 µM | 4.524 | 2.053 | 1.023 | 0.757 | 2.512 | 0.656 | 0.312 | 0.010 | −0.121 | 3.1156 | 295 µM | – | – |
| CCCCOC(=O)Nc1ccc(C(O)CN2CCN(c3ccccc3F)CC2)cc1.Cl (centres unmarked) [8h, 1-(2-{4-[(Butoxycarbonyl)amino]phenyl}-2-hydroxyethyl)-4-(2-fluorophenyl)piperazin-1-ium chloride] | 8 µM | 8 µM | 4.42 | 4.34 | 3.42 | > 250 µM | 250 µM | > 553 µM | 7.598 | 4.627 | 1.736 | 1.173 | 2.930 | 0.881 | 0.665 | 0.240 | 0.069 | 3.3441 | > 553 µM | 8 µM | – |
| CCCOC(=O)Nc1cccc(C(O)CN2CCN(c3ccccc3F)CC2)c1.Cl (centres unmarked) [8c, 1-(2-Hydroxy-2-{3-[(propoxycarbonyl)amino]phenyl}ethyl)-4-(2-fluorophenyl)piperazin-1-ium chloride] | 62.5 µM | 62.5 µM | 4.37 | 4.30 | 3.42 | 125 µM | 250 µM | > 571 µM | 5.898 | 3.561 | 1.466 | 1.023 | 2.679 | 0.771 | 0.552 | 0.166 | 0.010 | 3.1244 | > 571 µM | – | – |
| CCCOC(=O)Nc1ccc(C(O)CN2CCN(c3ccccc3F)CC2)cc1.Cl (centres unmarked) [8g, 1-(2-Hydroxy-2-{4-[(propoxycarbonyl)amino]phenyl}ethyl)-4-(2-fluorophenyl)piperazin-1-ium chloride] | 16 µM | 16 µM | 4.54 | 4.47 | 3.52 | > 250 µM | > 250 µM | > 571 µM | 5.394 | 3.108 | 1.342 | 0.956 | 2.600 | 0.732 | 0.492 | 0.128 | −0.020 | 3.0739 | > 571 µM | – | – |
| CCCCOC(=O)Nc1cccc(C(O)CN2CCN(c3ccccc3F)CC2)c1.Cl (centres unmarked) [8d, 1-(2-{3-[(Butoxycarbonyl)amino]phenyl}-2-hydroxyethyl)-4-(2-fluorophenyl)piperazin-1-ium chloride] | 32 µM | 32 µM | 4.32 | 4.31 | 3.49 | 62.5 µM | 62.5 µM | > 53 µM | 6.738 | 5.039 | 1.769 | 1.185 | 2.796 | 0.829 | 0.702 | 0.245 | 0.074 | 3.1641 | > 553 µM | 32 µM | MIC ([3]; ATCC25291, 336 h, 14-d/21-d, read-out: MIC against M. avium CNCTC My 330/80): 62.5 µM |
